Reference: patent publication US20210330736A1 (UNIVERSITEIT VAN AMSTERDAM, priority 2018, published 2021)

Experiments:
[1] = system: Ser40 phosphorylation of Th in MN9D cells; assay: Th Ser40 phosphorylation in MN9D cells (western blot, P-Ser40/total Th); format: cell-based
Protocol: FIG. 6. PDE2a is an important effector regulating Ser40 phosphorylation in MN9D cells. MN9D cultures were treated with IBMX or BAY-60-7550 (50 μM), a PDE2A-selective inhibitor. Cells were analyzed on western-blot for phosphorylation of Ser40 , total Th, and actin.
FIG. 7. PDE2a is an important effector regulating Ser40 phosphorylation in MN9D cells. BAY-60-7550 dose-curve and representative examples in MN9D (n=9, red) and HEK cells (n=4, blue) (Mean±SEM). Cells were treated with various concentrations of BAY 60-7750 and analyzed for Th phosphorylation on Ser40 , total Th and actin.
FIG. 10. PDE11 is an important effector regulating Ser40 phosphorylation in MN9D cells. BC 11-38 dose-curve and representative examples in MN9D (n=2) (Mean±SEM). IBMX served as a control and was used at 100 μM. Cell were analyzed for phosphorylation of Th on Ser40 and total Th was used as a loading control to determine phosphorylation specific effects.
24 hours prior to the administration of the different compounds, cells were serum-starved with DMEM medium supplemented with L-glutamine and Pen&Strep. Unless otherwise stated, the concentration of the different reagents is reported in Table 1 and the duration of the treatment was 1 hour.
Cells were harvested in 150 μL of Laemmli sample buffer (2% SDS, 10% glycerol, 60 mM Tris-Cl pH 6.8, 0.01% bromophenol blue, 50 mM freshly added DTT). Wells were duplicated in pairs and pooled into the same tubes to minimize variability. Samples were sonicated at maximum potency during 3 minutes, heated at 95° C. for 5 minutes and spun down briefly before loading. Running gels were 10% polyacrylamide except for the GUCY2C detection, which was optimal in 7% gels (375 mM Tris-Cl pH 8.8, 0.1% APS, 0.1% SDS, 0.04% TEMED). Stacking gels were 5% polyacrylamide (125 mM Tris-Cl pH 6.8, 0.1% APS, 0.1% SDS, 0.04% TEMED).
Up to 35 μL of sample was loaded in each slot and run in the presence of tris-glycine buffer and 0.1% SDS. Running conditions were 100 V during the first 20 minutes, followed by 160 V until the migration front reached the bottom of the gel. The transference was performed at 100 V onto 0.2 μm nitrocellulose membranes, in the presence of tris-glycine buffer and 20% methanol. The blotting duration was 140 minutes except for the detection of GUCY2C, which was transferred during 240 minutes in the presence of 0.1% SDS. Membranes were then submerged in Ponceau S solution to check blotting efficiency (0.1% Ponceau S, 5% acetic acid). After several washings with DEMI water, blots were incubated during 1 hour in the presence of 5% milk powder and TBS-T (154 mM NaCl, 49.5 mM Tris-Cl pH 7.4, 0.1% Tween-20). The incubation with the primary antibodies was performed O/N at 4° C. in TBS-T (consult Table 2 for dilution and species). Membranes were rinsed in TBS-T during 1 hour to remove the excess antibody. The incubation with the secondary antibodies took place during 60 minutes at room temperature (1:10,000 dilution in TBS-T, with the exception of the goat secondary which was diluted 1:20,000). Secondary antibodies were fused to the horseradish peroxidase and raised against the host species of the primary antibody. After additional washings during 1 hour, blots were exposed to an enhanced chemiluminescence solution and the signal was detected using an Odyssey imager (LI-COR). Band densitometry was performed with LI-COR Image Studio Lite. For graph quantifications, ‘Fold Change’ represents the ratio P-Ser40/Total Th. Statistical comparisons between pair of groups correspond to unpaired Student's t-tests, as calculated with GraphPad Prism. Asterisks denote the following p-values: *<0.05, **<0.01, ***<0.001, ****<0.0001.
IBMX is a non-selective PDE inhibitor, therefore we investigated the effect of inhibiting a specific PDE selectively on Ser40 phosphorylation. To study the effect of PDE2A inhibition on Ser40 phosphorylation we treated the dopaminergic cell-line MN9D with Bay BAY-60-7550 and analyzed the effects. […]

GUCY2C = GUCY2C (Homo sapiens, UniProt P25092); assay: GUCY2C ligand analysis in HEK-293 cells transfected with GUCY2C and Th (WES); format: cell-based; parameters: expressed in transfected cells; host or cells: HEK-293 cells transfected with GUCY2C and Th; conditions: 10 μM, Th Ser40 corrected for total Th, n=3
Protocol: Potential GUCY2C ligands were tested in HEK-293 cells transfected with GUCY2C and Th and subsequently treated and analyzed by automated western (WES). Th Ser40 was corrected for total Th. Controls were set to 1. Significance is determined by two-tailed t-test on n=3. * p<0.05, **p<0.01, ***p<0.005, “”p<0.001. A) Guanylin control 10 μM. B) Peptides 1 to 5 in an amount of 10 μM. C) Peptides 6 to 11 in an amount of 10 μM.
We designed novel peptides with different activities with respect to endogenous GUCY2C ligands (Table 3). The peptides were analyzed in Th and GUCY2C transfected HEK-293 cells and subsequently tested ex-vivo in mice striatal slices. […] We synthezised uroguanylin and heat stable toxin as controls for the synthezised peptides and they thus are from a different source than the commercially available uroguanylin and heat stable toxin. […] Possibly the effects of the peptides can differ depending on the area in the striatum which is stimulated.

Sequence of GUCY2C (P25092 24-1073): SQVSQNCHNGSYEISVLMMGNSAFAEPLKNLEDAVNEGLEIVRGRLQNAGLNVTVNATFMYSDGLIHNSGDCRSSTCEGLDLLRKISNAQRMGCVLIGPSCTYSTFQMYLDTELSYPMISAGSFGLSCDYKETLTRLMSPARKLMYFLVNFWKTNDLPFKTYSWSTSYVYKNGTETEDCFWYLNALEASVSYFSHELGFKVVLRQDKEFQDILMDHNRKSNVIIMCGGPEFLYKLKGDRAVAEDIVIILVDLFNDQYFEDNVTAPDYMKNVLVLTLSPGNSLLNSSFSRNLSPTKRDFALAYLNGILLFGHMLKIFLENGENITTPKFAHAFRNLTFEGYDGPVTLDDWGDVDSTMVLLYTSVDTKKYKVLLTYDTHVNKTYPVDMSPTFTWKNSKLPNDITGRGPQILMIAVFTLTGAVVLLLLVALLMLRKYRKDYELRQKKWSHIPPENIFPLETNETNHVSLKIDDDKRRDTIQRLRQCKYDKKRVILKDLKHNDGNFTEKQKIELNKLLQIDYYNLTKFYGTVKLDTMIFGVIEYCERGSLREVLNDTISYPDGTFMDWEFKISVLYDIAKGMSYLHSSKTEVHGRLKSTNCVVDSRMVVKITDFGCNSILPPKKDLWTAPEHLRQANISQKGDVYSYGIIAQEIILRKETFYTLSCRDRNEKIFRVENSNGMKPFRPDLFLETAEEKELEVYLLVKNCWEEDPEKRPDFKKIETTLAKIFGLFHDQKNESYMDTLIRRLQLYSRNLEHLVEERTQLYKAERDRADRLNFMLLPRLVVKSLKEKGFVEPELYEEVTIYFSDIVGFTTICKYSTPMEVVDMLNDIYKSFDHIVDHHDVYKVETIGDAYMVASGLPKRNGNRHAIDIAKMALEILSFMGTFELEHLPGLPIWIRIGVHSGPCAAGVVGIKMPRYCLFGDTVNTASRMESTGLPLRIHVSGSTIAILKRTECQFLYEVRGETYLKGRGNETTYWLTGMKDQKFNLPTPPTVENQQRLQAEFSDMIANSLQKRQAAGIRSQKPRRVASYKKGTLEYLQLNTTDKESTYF

Row | Molecule | increase in the phosphorylation of Ser40 ([1]; 50 μM) | performance versus IBMX on Ser40 phosphorylation ([1]; IBMX 100 μM as control) | phosphorylation of Th on Ser40 as compared to total Th (in words) ([1]; dose-curve) | IC50 ([1]; n=9, read-out: IC50 in the dopaminergic model (dose-curve of Th Ser40 phosphorylation)) | Ser40 phosphorylation in HEK-293 cells (significance, in words) (GUCY2C)
1 | COc1ccc(Cc2nn3c([C@@H](CCCc4ccccc4)[C@@H](C)O)nc(C)c3c(=O)[nH]2)cc1OC [BAY 60-7550] | more than 4 fold | performed better than IBMX | clear fold change increase in Ser40 phosphorylation | 1 µM | 
2 | guanylin: natural agonistic ligand of GUCY2C, 15 amino acid polypeptide; commercially available rat/mouse guanylin (Chemcruz) (PNTCEICAYAACTGC) [reference compound] |  |  |  |  | modest, but significant increase
